We go through three compounds from patent US6906078B2, “Method of using (H+/K+) ATPase inhibitors as antiviral agents” (Pharmacia Corporation, priority 1994, dated 2005).

One may read the melting point as the temperature of the solid-liquid transition. As usually defined, the inhibition is the change of the read-out against control, counted positive when it falls.

Like-named read-outs stand apart in the source and are kept apart here.

Data set [1] concerns gastric acid secretion. Nature of the data set: Inhibition of gastric acid secretion in meal-stimulated Pavlov pouch dog. To be noted: 3 mg/kg, four-hour period. Type of data set: in vivo, beagle dogs. On the procedure:
Adult female beagle dogs weighing 6 to 10 kilograms were obtained from Laboratory Research Enterprises (Kalamazoo, Mich.) or from Hazelton Research Animals (Cumberland, Va.). Surgical implantation of a Thomas-type gastric cannula into an innervated Pavlov pouch of each dog was performed by the method reported by L. Burrows et al., J. Surgical Res., 4, 147 (1964). After recovery from surgery, the dogs were trained to stand quietly, fully conscious, in Pavlov-type dog restraining slings. All dogs were deprived of food, but not water, for 24 hours prior to each assay. Basal acid secretion was measured by collecting from the cannulas for 30 minutes before dosing with a test compound. Solutions of the test compounds in iso-osmotic phosphate buffer (pH 7.4) were given either intravenously or directly into the Pavlov pouch. After 30 minutes the pouch was drained. The dogs were then fed 320 grams of dog food and gastric acid secretions were collected each half hour for four hours. Controls were determined in the same way except that only food (i.e., no test compound) was administered.
Data were analyzed for three different variables: volume of gastric juice, acid concentration, and total acid output. Percent inhibition for the four-hour experimental period was determined for each parameter by comparison with 3 to 4 controls. Estimates of ED50 were determined from dose response curves.

A further data set deals with T1, (H+/K+)-ATPase (Canis lupus familiaris, UniProt P50996).
T1 construct: The microsomes retained at the 15%-30% sucrose interface, after centrifugation at 250,000×g for sixty minutes, were used as the source of (H^+/K^+)-ATPase; from tissue; host or cells: gastric glandular mucosa of mongrel dogs (microsomal fraction, lyophilized)
T1 sequence (P50996 whole entry): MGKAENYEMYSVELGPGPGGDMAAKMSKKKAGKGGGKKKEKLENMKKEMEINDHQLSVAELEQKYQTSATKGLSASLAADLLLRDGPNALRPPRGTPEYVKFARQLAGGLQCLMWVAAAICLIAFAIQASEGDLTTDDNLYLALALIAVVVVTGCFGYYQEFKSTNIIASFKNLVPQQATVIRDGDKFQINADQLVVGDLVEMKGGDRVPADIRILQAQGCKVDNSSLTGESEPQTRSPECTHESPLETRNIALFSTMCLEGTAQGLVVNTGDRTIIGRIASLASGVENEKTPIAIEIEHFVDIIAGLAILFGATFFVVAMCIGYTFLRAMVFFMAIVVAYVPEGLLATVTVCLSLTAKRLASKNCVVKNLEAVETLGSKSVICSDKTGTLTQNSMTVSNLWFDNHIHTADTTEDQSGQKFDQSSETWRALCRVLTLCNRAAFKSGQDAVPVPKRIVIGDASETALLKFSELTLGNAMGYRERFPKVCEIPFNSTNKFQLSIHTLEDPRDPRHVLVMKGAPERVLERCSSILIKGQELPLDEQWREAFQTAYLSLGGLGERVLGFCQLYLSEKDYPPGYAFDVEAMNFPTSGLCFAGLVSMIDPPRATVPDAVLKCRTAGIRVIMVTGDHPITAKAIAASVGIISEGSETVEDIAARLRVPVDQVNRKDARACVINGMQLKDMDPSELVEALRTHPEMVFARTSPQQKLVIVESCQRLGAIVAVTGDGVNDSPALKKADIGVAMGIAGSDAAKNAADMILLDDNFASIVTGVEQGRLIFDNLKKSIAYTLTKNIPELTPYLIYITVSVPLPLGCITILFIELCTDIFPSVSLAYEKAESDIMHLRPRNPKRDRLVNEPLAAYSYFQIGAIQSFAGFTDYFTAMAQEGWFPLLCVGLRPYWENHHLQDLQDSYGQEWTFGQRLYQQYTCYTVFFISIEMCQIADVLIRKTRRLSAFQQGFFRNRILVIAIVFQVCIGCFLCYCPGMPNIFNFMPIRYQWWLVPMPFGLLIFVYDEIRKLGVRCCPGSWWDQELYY
T1 sequence (P33704 whole entry partner): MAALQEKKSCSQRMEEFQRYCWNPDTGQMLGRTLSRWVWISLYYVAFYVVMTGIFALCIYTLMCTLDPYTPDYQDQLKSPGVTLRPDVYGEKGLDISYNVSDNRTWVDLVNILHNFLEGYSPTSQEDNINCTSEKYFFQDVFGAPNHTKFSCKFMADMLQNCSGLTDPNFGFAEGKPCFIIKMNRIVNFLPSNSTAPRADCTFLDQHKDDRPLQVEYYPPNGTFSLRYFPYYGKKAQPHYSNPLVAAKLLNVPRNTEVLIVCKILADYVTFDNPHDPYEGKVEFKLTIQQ
Briefly: Inhibition of (H+/K+)-ATPase from canine gastric mucosa (inorganic phosphate release). Type of data set: biochemical. To be noted: canine gastric mucosa microsomes, pH 6.0, 30 min preincubation at 37° C.; read-out: (H+/K+)-ATPase IC50. Put shortly:
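Lyophilised gastric microsomes (sucrose-gradient 15%/30% interface fraction from dog mucosa, ~25 mcg protein) preincubated with compound 30 min at 37° C in 20 mM MES-Tris pH 6.0, 5 mM MgCl2, 25 mM sucrose, then 30 min more after 4 mM Tris-ATP. Released phosphate read by molybdate/ascorbate at 870 nm; activity = K+-stimulated (20 mM KCl) minus basal.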

Data set [2] relates to gastric acid secretion. Briefly: Inhibition of gastric acid secretion in gastric fistula beagle dogs (histamine-stimulated). Type of data set: in vivo. To be noted: Canis lupus familiaris, 4 h, histamine-stimulated, four-hour period, read-out: Gastric-Fistula Beagle % Inhibition (3 mg/kg dose). An excerpt:
Adult female beagle dogs weighing 6 to 11 kilograms obtained from Laboratory Research Enterprises (Kalamazoo, Mich.) or from Hazelton Research Animals (Cumberland, Va.) were surgically implanted with a simple Thomas-type gastric cannula. After recovery from surgery, the dogs were trained to stand quietly, fully conscious, in Pavlov-type dog restraining slings and were acclimated to intravenous infusion of histamine dihydrochloride. During the course of these studies, no dog was used more than once a week. All dogs were deprived of food, but not water, for 18 hours prior to each assay. Each dog was initially infused with 0.15 M sodium chloride solution at a constant rate of […]. The volume of gastric secretions, collected in plastic bottles affixed to the cannula, were measured to the nearest 0.1 ml at 30 minute intervals. One of the following protocols was followed, depending on the route chosen for administration of test compound.
Intravenous dosing: Following a 30-minute basal secretion period, test compounds were administered intravenously (i.v.). At the end of an additional 30 minute period, the saline infusion was replaced with histamine dihydrochloride in saline administered at a rate 15 mcg per kilogram of body weight per hour. Histamine stimulation was maintained for a maximum of four hours during which time gastric secretions were collected every 30 minutes. The pH and titratable acidity were determined for samples from each collection period.
Intragastric dosing: Following a 30-minute basal secretion period, he collection bottles were removed, dosing plugs here inserted, and test compounds were administered intragastrically (i.g.) At the end of a 30-minute drug absorption period, the stomachs were emptied, the collection bottles were reattached, and collections were resumed at 30-minute intervals. Simultaneously, the saline infusion was replaced with a continuous intravenous infusion of histamine dihydrochloride in saline administered for four hours at a rate 15 mcg per kilogram of body weight per hour.
Intraduodenal dosing: Dogs were also equipped with duodenal cannulas for intraduodenal (i.d.) administration of test compounds. Dosing was otherwise performed as described for intragastric dosing.
Data from each protocol were analyzed for three gastric sample variables: volume of gastric juice, acid concentration, and total acid output. Percent inhibition for each four-hour experimental period was determined for each parameter by comparison with 3 to 4 controls in which […]. Estimates of ED50's were determined from dose response curves.

Data set [3] has as its target HCMV protease (assemblin) (Human cytomegalovirus, UniProt P16753). Briefly: Enzymatic assay for HCMV protease (assemblin) inhibitors, fluorogenic substrate DE2. The following applies: at 100 μm; 30 min preincubation at 22° C.; read-out: Assemblin Inhibition % Inhibition at 100 μm. Type of data set: biochemical. The procedure: The enzymatic assay for assemblin inhibitors compared the rate of product appearance between a control reaction containing no inhibitor and one that contained a known concentration of a potential inhibitor. There were two phases to the enzyme reaction. The first was a period of incubation of enzyme in the presence of inhibitor, but in the absence of the substrate. This incubation allowed for the inhibitor to bind and potentially block the enzyme from hydrolyzing the substrate. The second phase was started by adding the substrate and measuring the rate of product production.
The construction also encoded six additional histidine residues at the amino terminus of the protease. These additional histidine residues provided an affinity ligand by which it was purified using nickel-nitriloacetic acid-agarose (Qiagen).
The purified protease was stored as a 1-3 mg/ml stock solution in 50 mM sodium phosphate buffer, pH 7.4; 300 mM sodium chloride; 100 mM imidazole; 50% (v/v) glycerol. This stock was diluted with assay buffer to 4.8 μg/ml. A 100 μL aliquot of this solution was used in the enzyme reaction.
A specific substrate was synthesized based on the cleavage specificity of HCMV protease at the “maturation site” of the assembly protein (F. Liu and B. Roizman, J. Viral. 65, 5149 (1991), and A. R. Welch, et al, J. Viral., 65 4091 (1991)). The assembly protein maturation site has the sequence . . . AGVVNA*SCRLATA . . . (SEQ ID NO. 1); the substrate used was dabcycl-Abu-[…]-edans (SEQ ID NO. 2) (DE2). […] However, when the two chromophores are separated because of hydrolysis of the peptide moiety by HCMV protease the edans fluorescence was no longer quenched and an increase in fluorescence was realized. DE2 was stored as a stock solution at 160 μg/ml in dimethyl sulfoxide. This was diluted 10-fold with assay buffer to give a concentration of 16 μg/ml just before use. An aliquot of 50 μL was used in the reaction.
An assay Buffer (10 mM sodium phosphate buffer, pH 7.4; 150 mM sodium acetate; 0.1% CHAPS; and 20% (v/v) glycerol) was used to dilute stock solutions of enzyme and substrate.
Inhibitors were dissolved in dimethyl sulfoxide at 16-times the final assay concentration. A 10 μL aliquot of this inhibitor solution was used in the reaction.
A 100 μL aliquot of enzyme solution (4.8 μg/ml) was mixed with 10 μL of inhibitor solution in a 96-well plate cell and incubated at 22° C. for 30 minutes. Control reactions contained 10 μL of dimethylsulfoxide instead of inhibitor solution. After the preincubation was completed, 50 μL of substrate solution was added and the fluorescence recorded every 5 minutes for a period of 30 minutes. All reactions were run in triplicate with the exception of the uninhibited control reaction which was replicated 6-fold. The change in fluorescence was recorded over time and an average rate for each set of 3 reactions was calculated. Fluorescence assays were subject to spurious various due to factors such as dust in the 96-well plate; such results were omitted from the calculation of relative rates.

Sequence of HCMV protease (assemblin) (P16753 1-256): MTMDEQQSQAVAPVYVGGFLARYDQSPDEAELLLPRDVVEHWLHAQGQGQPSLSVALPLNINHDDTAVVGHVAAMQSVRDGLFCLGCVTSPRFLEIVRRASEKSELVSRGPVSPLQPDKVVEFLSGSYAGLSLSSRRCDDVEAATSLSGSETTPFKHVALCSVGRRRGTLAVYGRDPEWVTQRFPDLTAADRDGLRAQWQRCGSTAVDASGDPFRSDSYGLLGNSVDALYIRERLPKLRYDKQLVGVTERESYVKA

In the case of `CN(C)c1ccccc1C[S+]([O-])c1nc2ccccc2[nH]1` (centres unmarked) [Example 4, 2-[(1H-Benzimidazol-2-ylsulfinyl)methyl]N,N-dimethylbenzenamine], the melting point lay within 107 to 109 °C. Further, the “Pavlov-Pouch Dog % Inhibition (dose (mg/kg))” value with gastric acid secretion [1] is 3 (3 mg/kg) %. Also, on (H+/K+)-ATPase, the IC50 came to 0.7 µM. For the same compound, the inhibition in vivo at 3 mg/kg with gastric acid secretion [2] (iv, 3 mg/kg i.v.) amounted to 14%.
In the case of `COc1ccc2[nH]c([S+]([O-])Cc3cc(C)ccc3N)nc2c1` (centres unmarked) [Example 34, 2-[[(5-Methoxy-1H-benzimidazol-2-yl)sulfinyl]methyl]-4-methylbenzenamine], the melting point lay within 148 to 149 °C. Further, the “Pavlov-Pouch Dog % Inhibition (dose (mg/kg))” value with gastric acid secretion [1] is recorded as 79 (3 mg/kg) %. The IC50 on (H+/K+)-ATPase was 4.2 µM. The inhibition in vivo at 3 mg/kg with gastric acid secretion [2] (intraduodenal, 3 mg/kg i.d.) worked out at 66%. Also, the inhibition in vivo at 3 mg/kg with gastric acid secretion [2] (iv, 3 mg/kg i.v.) is 91%. In addition, in the data set with gastric acid secretion [2] (po, 3 mg/kg i.g.), the inhibition in vivo at 3 mg/kg worked out at 43%.
The compound `Nc1ccccc1C[S+]([O-])c1nc2cc(C(F)(F)F)ccc2[nH]1` (centres unmarked) [Example 47] returned a melting point of 152 to 152.5 °C. Besides, the inhibition at 100 µM in data set [3] is 40%. At (H+/K+)-ATPase, the IC50 was determined as 4.4 µM. The inhibition in vivo at 3 mg/kg in the data set with gastric acid secretion [2] (intraduodenal, 3 mg/kg i.d.) came out at 37%.
